According to patent publication US12522827B2 (priority 2021, dated 2026):
pIC50: −log10 of the molar value. Like-named read-outs stand apart in the source and are kept apart here.

How the values were obtained:
[1] = system: A/WSN/33 (H1N1) virus with NA H274Y resistance mutation; assay type: cell-based, Influenza A/WSN/33 (H1N1)
PR8 = assay: microbe, parasite or virus in culture; assay type: cell-based, Influenza A/PR/8/34 (PR8) H1N1 virus

In the case of CCOC(=O)C1=C[C@@H](OC(CC)CC)[C@H](NC(C)=O)[C@@H](N)C1 [Oseltamivir], the pIC50 [1] was 4.28, the “increase of IC50” value (PR8) was 1000 fold and the pIC50 (PR8; Influenza A virus, PR8, read-out: IC50 after serial passages) was 4.30. The pIC50 (PR8; Influenza A virus, PR8, read-out: starting IC50) was 7.39.
In the case of TACTtactgacaGCC [LNA9], the potency and efficacy [1] was “picomolar activity”, the pIC50 (PR8; read-out: IC50 after serial passages) was 10.80 and the pIC50 (PR8; read-out: IC50 at start of passaging) was 10.74.
